“Also recorded” adds a separate entry of the source.
Target: SARS-CoV-2 NSP14/10 complex (ExoN activity) (Severe acute respiratory syndrome coronavirus 2, UniProt P0DTD1)
Assay: biochemical
Format: biochemical

SMILES	NSP14/10-inhibitory activity (in words)	IC50
Cc1ccc2ccc(C(=O)O)c(O)c2n1 [#38]	no observed inhibition; also recorded: does not inhibit NSP14	
CC(C)=CCc1c(O)ccc(C(=O)/C=C/c2ccc(O)cc2)c1O [#96, Isobavachalcone]		17.4 ± 1.39 µM
CC(C)=CCOc1ccc(/C=C/C(=O)c2ccc(OCC=C(C)C)cc2OCC(=O)O)cc1 [#102, Sofalcone, reference compound]		22 ± 6.02 µM
C[C@@H]1CCO[C@H]2Cn3cc(C(=O)NCc4ccc(F)cc4F)c(=O)c(O)c3C(=O)N12 [Dolutegravir, reference compound]	detectable NSP14/10-inhibitory activities	
O=C1Cc2ccccc2C(=O)N1O [N-Hydroxy-isoquinoline-1,3-dione, reference compound]	detectable NSP14/10-inhibitory activities	

From publication PMC8640510 (Cell Death and Differentiation, 2021)
